Laboratory results as given in patent publication US20240189279A1, “IMMUNOMODULATORY COMPOSITIONS AND METHODS OF USE THEREOF” (THE TEXAS A&M UNIVERSITY SYSTEM, priority 2022, published 2024).

What was measured:
[1] = test system: Western diet (WD) fed mice; test: Western diet mouse model of diet-induced fatty liver disease: serum ALT, liver TG, histology, body weight; format: in vivo, mice (male B6 129SF1/J)
Protocol: Study design. The overall objective of the study was to investigate if […] can alleviate diet induced liver steatosis and inflammation in vivo. These NAFLD features were induced in mice by feeding the animals a WD and SW for 8 weeks. The drinking water for these mice was then supplemented with low and high doses of […], while continuing the WD for another 8 weeks. The phenotypic changes were assessed by measuring body weight gain, serum ALT, hepatic inflammatory cytokines, and histopathological examination of liver tissue. To investigate potential mechanisms of action, a series of omics analyses were performed on fecal material (metagenomics and metabolomics) and liver tissue (metabolomics and proteomics). To determine cell-type specific signaling mediating […] effects in macrophages, an in vitro cell culture model was used. The histopathological scoring of liver sections was blinded; all other analyses were not blinded. Sample processing and statistical analysis were performed concurrently on treatment and control groups using identical methods. Animal experiments. Male B6 129SF1/J mice at 6 weeks of age were obtained from Jackson Laboratories (Bar Harbor, ME). Mice were acclimatized to the animal facility for one week. At the start of the experiment, mice were randomly divided into four groups (n=10 for each group). Three of the four groups were fed ad libitum a Western diet (WD) with 40% Kcal from fat and containing 0.15% cholesterol (D12079B, Research Diets) and a sugar water (SW) solution (23.1 g/L d-fructose+18.9 g/L d-glucose) as previously described (DIAMOND model (15)). After 8 weeks, the three groups of WD-fed mice were randomly selected for treatment with vehicle (WD group) or low (WD-50 group) or high dose (WD-100 group) of […]. The WD group was fed WD and drank sugar water. The WD-50 and WD-100 groups were fed WD and drank sugar water containing, respectively, 50 or 100 mg […] per kg body weight. The treatments were continued for another 8 weeks. Water bottles containing SW and […] or only SW were changed every other day. A fourth group of mice was fed a low-fat control diet (D12450B, Research Diets) and normal water for 16 weeks (CN group) (FIG. 9A). FIG. 9A presents the study design. Mice belonging to the same treatment group were housed together (5 mice/cage). Mice were maintained on 12:12-h light-dark cycles. All procedures were performed in accordance with Texas A&M University Health Sciences Center Institutional Animal Care and Use Committee guidelines under an approved animal use protocol (AUP #2017-0145). Sample collection. Fecal pellets were collected every other week prior to […] treatment, right before […] treatment, every week during […] treatment, and on the last day of the experiments (FIG. 9B). FIG. 9B presents the sampling scheme. All fecal pellets were flash frozen in liquid nitrogen after collection. Blood samples from the submandibular vein were taken right prior to […] treatment, every other week during […] treatment and on the last day of the experiments. The blood samples were centrifuged at 4,000 g for 15 min at 4° C. to obtain serum. At the end of the experiment, the mice were sacrificed by euthanasia. The liver was quickly excised and rinsed with 10× volume of ice-cold PBS. The right medium lobe of the liver was fixed in 10% neutral formalin for histological analysis. A small piece from right lateral lobe was stored in RNAlater (Sigma Aldrich, St. Louis, MO) using the manufacturer's protocol. The remaining liver tissue samples were flash frozen in liquid nitrogen, homogenized in HPLC-grade water, lyophilized to a dry powder, and stored at -80° C. until further processing. Histological analysis. Formalin fixed liver were embedded in paraffin, sectioned (5 μm) and stained with hematoxylin and eosin (H&E) through VWR histological services (Radnor, PA). Liver histology sections were evaluated by an expert pathologist at Texas A&M University who was blinded to the treatment conditions. […]

liver metabolome = test: Liver untargeted metabolomics in WD mice; format: in vivo, mice (male B6 129SF1/J)
[2] = test system: palmitate and LPS stimulated macrophages; test: Cytokine production in palmitate and LPS stimulated macrophages; format: cell-based
[3] = week 16, dose-dependent, WD-50 and WD-100 vs WD

O=C([O-])Cc1c[nH]c2ccccc12.[Na+] [I3A, Indole-3-acetate sodium salt]
protection against steatosis and immune cell infiltration in livers ([1]; I3A up to 100 mg/kg body wt. in drinking water, 16 weeks WD, B6/129 mice): dose-dependently protected against these injuries
serum alanine aminotransferase (ALT) levels ([1]; high dose I3A (WD-100, 100 mg/kg in drinking water) vs WD, week 10 and beyond): significantly reduced serum ALT levels
body weight increase ([1]; normalized to week 8 body weight, I3A treated vs WD): slowed the weight increase
liver TG ([1]; week 16, WD-50 and WD-100 vs WD): reduced liver TG in a dose-dependent manner
hepatocyte ballooning (H&E histology score) [1, 3]: improved
liver steatosis (H&E histology score) [1, 3]: improved
lobular inflammation (H&E histology score) [1, 3]: improved
liver metabolome PLS-DA projection (liver metabolome; high dose (WD-100) group vs CN and WD, p<0.005 and p<0.0005): only partially overlapped with both CN and the WD group
WD-induced changes in 516 significant annotated liver metabolite features (hierarchical clustering) (liver metabolome; high dose of I3A): generally reversed these changes
liver metabolome PLS-DA projection (liver metabolome; low dose (WD-50) group vs WD, p=0.26): overlapped completely with the WD group
production of TNF-α, IL-1β, and MCP-1 [2]: dose-dependently attenuated the production of TNF-α, IL-1β, and MCP-1
